Results as given in patent US20250154358A1, “ORGANIC DYE COMPOSITION, AND SPRAY AGENT COMPRISING SAME” (PANASONIC INTELLECTUAL PROPERTY MANAGEMENT CO., LTD., priority 2022, published 2025).

Key:
E. coli = test: Color change observation after spraying on bacterial liquid (E. coli); format: cell-based; details: detection of E. coli; statement in the discussion
Method: 100 μL of a bacterial liquid (E. coli, […]) was added dropwise onto a slide glass. Then, a sample solution (organic dye composition) of each of Examples and Comparative Examples was placed in a spray bottle (φ39×147 mm, capacity 100 ml), and sprayed (one push) to the bacterial liquid on the slide glass. Thereafter, after leaving for 15 minutes, the following fluorescence observation and color change observation were performed. • Fluorescence observation (visual visibility)
For fluorescence observation, the sprayed part was irradiated with an LED light (530 nm output, color: green), and visual observation was performed through a red filter. The evaluation criteria were as follows. • good: Emission of the solution can be clearly visually recognized • fair: Emission of the solution can be visually recognized but very weak • poor: Emission of the solution cannot be visually recognized • Color change • Color change was visually observed and evaluated according to the following criteria: • good: Color change of the solution can be clearly visually recognized • fair: Color change of the solution can be visually recognized but very weak • poor: Color change of the solution cannot be visually recognized or no color change occurs

Staphylococcus aureus = test: Color change observation after spraying on bacterial liquid (Staphylococcus aureus); format: cell-based; details: detection of S. aureus; statement in the discussion

CC(C)COC(=O)Oc1ccc2nc3ccc(=O)cc-3oc2c1 [Formula (4)]
color change, compared with the dye represented by Formula (2) (E. coli): more clearly visually recognized
color change, compared with the dye represented by Formula (2) (Staphylococcus aureus): more clearly visually recognized
